Laboratory results taken from US20240109881A1, “Heteroaryl Compounds as Ligand Directed Degraders of IRAK4” (Bristol-Myers Squibb Company, priority 2022, published 2024).

The molecules below were run against T1, IRAK4 (Homo sapiens, UniProt Q9NWZ3) (assay: ALE THP1 HTRF (Advanced Lipoxidation End Product THP1 Homogeneous Time Resolved Fluorescence)). Details: THP1 cells.
T1 construct: endogenous in cells; host or cells: THP-1 cells
T1 sequence (Q9NWZ3 1-460): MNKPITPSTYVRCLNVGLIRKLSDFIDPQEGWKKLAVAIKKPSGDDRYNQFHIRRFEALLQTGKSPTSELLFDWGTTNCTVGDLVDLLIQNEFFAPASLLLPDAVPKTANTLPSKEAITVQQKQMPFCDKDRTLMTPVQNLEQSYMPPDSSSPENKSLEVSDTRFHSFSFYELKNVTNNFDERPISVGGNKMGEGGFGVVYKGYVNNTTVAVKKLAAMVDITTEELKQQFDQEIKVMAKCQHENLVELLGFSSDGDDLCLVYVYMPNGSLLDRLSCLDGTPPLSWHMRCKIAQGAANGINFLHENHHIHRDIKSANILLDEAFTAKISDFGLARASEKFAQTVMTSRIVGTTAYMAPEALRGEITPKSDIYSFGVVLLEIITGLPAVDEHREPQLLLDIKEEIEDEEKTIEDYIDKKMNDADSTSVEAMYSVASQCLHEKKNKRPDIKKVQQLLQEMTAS
Format: cell-based
How it was run: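 HTRF read-out of IRAK4 protein: anti-IRAK4 d2 and cryptate antibody pair added to BCA-normalized lysates, overnight dark room-temperature incubation. Lysis ran 45 min with shaking at room temperature; buffer, cryptate-only and negative controls included.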

Which “ALE THP1 HTRF YMIN” value does the source give for N#Cc1cnc2c(cnn2-c2cc(NC3CC3)c(C(=O)N[C@H]3CC[C@H](CCN4CCC5(CC4)CN(c4cccc(C6CCC(=O)NC6=O)c4)C5)CC3)cn2)c1 (stereo partly drawn) [P-90] here?
Its value is 11.6%.

What about the EC50 of the same molecule?
Its EC50 is 28 nM.

Which results are given for C[C@H](C#N)Nc1cc(-n2ncc3cc(C#N)cnc32)ncc1C(=O)N[C@H]1CC[C@H](CCN2CCN(c3ccc(C4CCC(=O)NC4=O)cc3)CC2)CC1 (stereo partly drawn) [P-91, 6-(5-Cyano-1H-pyrazolo[3,4-b]pyridin-1-yl)-4-(((R)-1-cyanoethyl)amino)-N-((1r,4r)-4-(2-(4-(4-(2,6-dioxopiperidin-3-yl)phenyl)piperazin-1-yl)ethyl)cyclohexyl)nicotinamide]?
ALE THP1 HTRF YMIN: 7.0%; EC50: 5 nM

N#Cc1cnc2c(cnn2-c2cc(NC34CC(C3)C4)c(C(=O)NC3CCC(CCN4CCN(c5ccc(C6CCC(=O)NC6=O)cc5)CC4)CC3)cn2)c1 (stereo not drawn) [P-92] was tested. Which “ALE THP1 HTRF YMIN” value did it give?
Its value is 11.3%.

And the EC50?
Its EC50 is 38 nM.

For N#Cc1cnc2c(-c3cc(NC4CC4)c(C(=O)NC4CCC(CCN5CCN(c6ccc(C7CCC(=O)NC7=O)cc6)CC5)CC4)cn3)cnn2c1 (stereo not drawn) [P-93], which “ALE THP1 HTRF YMIN” value is on record?
The value was 13.0%.

And the EC50?
The EC50 was 23 nM.

With N#Cc1cnc2c(cnn2-c2cc(NC3CC3)c(C(=O)NC3CCC(CCN4CCN(c5ccc([C@H]6CCC(=O)NC6=O)cc5)CC4)CC3)cn2)c1 (stereo partly drawn) [P-95] as the molecule, how does the “ALE THP1 HTRF YMIN” value read?
Its value is 9.9%.

What about the EC50 of the same molecule?
Its EC50 is 15 nM.

How did the “ALE THP1 HTRF YMIN” value turn out when N#Cc1cnc2c(cnn2-c2cc(NC3CC3)c(C(=O)NC3CCC(CCN4CCN(c5ccc([C@@H]6CCC(=O)NC6=O)cc5)CC4)CC3)cn2)c1 (stereo partly drawn) [P-96] was run?
The value was 8.5%.

And the EC50?
Its EC50 is 4 nM.

For N#Cc1cnc2c(cnn2-c2cc(NC3CC(F)(F)C3)c(C(=O)NC3CCC(CCN4CCN(c5ccc(C6CCC(=O)NC6=O)cc5)CC4)CC3)cn2)c1 (stereo not drawn) [P-97], which “ALE THP1 HTRF YMIN” value is on record?
The value was 15.1%.

And the EC50?
Its EC50 is 88 nM.

What does the source list for N#Cc1cnc2c(cnn2-c2cc(NC3CC3)c(C(=O)NC3CCC(CCN4CCN(c5ccc(C6CCC(=O)NC6=O)cn5)CC4)CC3)cn2)c1 (stereo not drawn) [P-98]?
ALE THP1 HTRF YMIN: 10.5%; EC50: 17 nM

What does the source list for N#Cc1cnc2c(cnn2-c2cc(NCCF)c(C(=O)NC3CCC(CCN4CCN(c5ccc(C6CCC(=O)NC6=O)cc5)CC4)CC3)cn2)c1 (stereo not drawn) [P-99]?
ALE THP1 HTRF YMIN: 10.7%; EC50: 22 nM

What does the source list for N#Cc1cc2ccn(-c3cc(NC4CC4)c(C(=O)NC4CCC(CCN5CCN(c6ccc(C7CCC(=O)NC7=O)cc6)CC5)CC4)cn3)c2nc1F (stereo not drawn) [P-100]?
ALE THP1 HTRF YMIN: 28.3%; EC50: 1100 nM

How did the “ALE THP1 HTRF YMIN” value turn out when N#Cc1cnc2c(c1)c(F)cn2-c1cc(NC2CC2)c(C(=O)NC2CCC(CCN3CCN(c4ccc(C5CCC(=O)NC5=O)cc4)CC3)CC2)cn1 (stereo not drawn) [P-101] was run?
Its value is 24.6%.

And the EC50?
Its EC50 is 92 nM.

N#Cc1cnc2c(cnn2-c2cc(NC3CC3)c(C(=O)NC3CCC(NCC4CCN(c5ccc(C6CCC(=O)NC6=O)cc5)CC4)CC3)cn2)c1 (stereo not drawn) [P-102] was tested. Which “ALE THP1 HTRF YMIN” value did it give?
Its value is 14.2%.

What about the EC50 of the same molecule?
The EC50 was 32 nM.

Which results are given for CN(CC1CCN(c2ccc(C3CCC(=O)NC3=O)cc2)CC1)[C@H]1CC[C@H](NC(=O)c2cnc(-n3ncc4cc(C#N)cnc43)cc2NC2CC2)CC1 (stereo partly drawn) [P-103, 6-(5-cyanopyrazolo[3,4-b]pyridin-1-yl)-4-(cyclopropylamino)-N-[4-[[1-[4-(2,6-dioxo-3-piperidyl)phenyl]-4-piperidyl]methyl-methyl-amino]cyclohexyl]pyridine-3-carboxamide]?
ALE THP1 HTRF YMIN: 16.2%; EC50: 29 nM

What does the source list for N#Cc1cnc2c(cnn2-c2cc(NC3CC3)c(C(=O)N[C@H]3CC[C@H](C(F)(F)CN4CCN(c5ccc(C6CCC(=O)NC6=O)cc5)CC4)CC3)cn2)c1 (stereo partly drawn) [P-104, 6-(5-cyanopyrazolo[3,4-b]pyridin-1-yl)-4-(cyclopropylamino)-N-[4-[2-[4-[4-(2,6-dioxo-3-piperidyl)phenyl]piperazin-1-yl]-1,1-difluoro-ethyl]cyclohexyl]pyridine-3-carboxamide]?
ALE THP1 HTRF YMIN: 16.0%; EC50: 47 nM

What does the source list for N#Cc1cnc2c(cnn2-c2cc(NCC3CC3)c(C(=O)N[C@H]3CC[C@H](CCN4CCN(c5ccc(C6CCC(=O)NC6=O)cc5)CC4)CC3)cn2)c1 (stereo partly drawn) [P-105]?
ALE THP1 HTRF YMIN: 11.5%; EC50: 76 nM

N#Cc1cnc2c(cnn2-c2cc(NC[C@H]3CCCO3)c(C(=O)N[C@H]3CC[C@H](CCN4CCN(c5ccc(C6CCC(=O)NC6=O)cc5)CC4)CC3)cn2)c1 (stereo partly drawn) [P-106] was tested. Which “ALE THP1 HTRF YMIN” value did it give?
Its value is 17.5%.

And the EC50?
The EC50 was 246 nM.

How did the “ALE THP1 HTRF YMIN” value turn out when CCCNc1cc(-n2ncc3cc(C#N)cnc32)ncc1C(=O)N[C@H]1CC[C@H](CCN2CCN(c3ccc(C4CCC(=O)NC4=O)cc3)CC2)CC1 (stereo partly drawn) [P-107] was run?
Its value is 9.1%.

What about the EC50 of the same molecule?
Its EC50 is 14 nM.

With CC(C)(O)CNc1cc(-n2ncc3cc(C#N)cnc32)ncc1C(=O)N[C@H]1CC[C@H](CCN2CCN(c3ccc(C4CCC(=O)NC4=O)cc3)CC2)CC1 (stereo partly drawn) [P-108] as the molecule, how does the “ALE THP1 HTRF YMIN” value read?
The value was 11.0%.

And the EC50?
Its EC50 is 32 nM.

With N#Cc1cnn2c(-c3cc(NC4CC4)c(C(=O)N[C@H]4CC[C@H](CCN5CCN(c6ccc(C7CCC(=O)NC7=O)cc6)CC5)CC4)cn3)ccc2c1 (stereo partly drawn) [P-109] as the molecule, how does the “ALE THP1 HTRF YMIN” value read?
The value was 10.7%.

And the EC50?
The EC50 was 8 nM.

For N#Cc1cnc2c(cnn2-c2cc(NCC(F)(F)F)c(C(=O)N[C@H]3CC[C@H](CCN4CCN(c5ccc(C6CCC(=O)NC6=O)cc5)CC4)CC3)cn2)c1 (stereo partly drawn) [P-112], which “ALE THP1 HTRF YMIN” value is on record?
Its value is 8.7%.

And the EC50?
The EC50 was 23 nM.

For N#Cc1cnc2c(cnn2-c2cc(NCC3CCCO3)c(C(=O)N[C@H]3CC[C@H](CCN4CCN(c5ccc(C6CCC(=O)NC6=O)cc5)CC4)CC3)cn2)c1 (stereo partly drawn) [P-113], which “ALE THP1 HTRF YMIN” value is on record?
The value was 18.7%.

And the EC50?
Its EC50 is 74 nM.

How did the “ALE THP1 HTRF YMIN” value turn out when O=C1CCC(c2ccc(N3CCN(CC[C@H]4CC[C@H](NC(=O)c5cnc(-n6ncc7cc(Cl)cnc76)cc5NC5CC5)CC4)CC3)cc2)C(=O)N1 (stereo partly drawn) [P-114] was run?
Its value is 46.1%.

And the EC50?
The EC50 was over 5000 nM.

Which “ALE THP1 HTRF YMIN” value does the source give for CC(C)(C#N)Nc1cc(-n2ncc3cc(C#N)cnc32)ncc1C(=O)N[C@H]1CC[C@H](CCN2CCN(c3ccc(C4CCC(=O)NC4=O)cc3)CC2)CC1 (stereo partly drawn) [P-115] here?
Its value is 38.9%.

What about the EC50 of the same molecule?
Its EC50 is over 5000 nM.

Which “ALE THP1 HTRF YMIN” value does the source give for C[C@H]1CN(c2ccc(C3CCC(=O)NC3=O)cc2)C[C@H](C)N1CC[C@H]1CC[C@H](NC(=O)c2cnc(-n3ncc4cc(C#N)cnc43)cc2NC2CC2)CC1 (stereo partly drawn) [P-116] here?
Its value is 8.3%.

What about the EC50 of the same molecule?
The EC50 was 7 nM.

O=C1CCC(c2ccc(N3CCN(CC[C@H]4CC[C@H](NC(=O)c5cnc(-n6ncc7cncnc76)cc5NC5CC5)CC4)CC3)cc2)C(=O)N1 (stereo partly drawn) [P-117] was tested. Which “ALE THP1 HTRF YMIN” value did it give?
Its value is 13.6%.

What about the EC50 of the same molecule?
Its EC50 is 33 nM.

How did the “ALE THP1 HTRF YMIN” value turn out when N#Cc1cnc2c(cnn2-c2cc(NCCC(F)(F)F)c(C(=O)N[C@H]3CC[C@H](CCN4CCN(c5ccc(C6CCC(=O)NC6=O)cc5)CC4)CC3)cn2)c1 (stereo partly drawn) [P-118] was run?
Its value is 9.9%.

And the EC50?
The EC50 was 34 nM.

Which “ALE THP1 HTRF YMIN” value does the source give for CCC1(Nc2cc(-n3ncc4cc(C#N)cnc43)ncc2C(=O)N[C@H]2CC[C@H](CCN3CCN(c4ccc(C5CCC(=O)NC5=O)cc4)CC3)CC2)CC1 (stereo partly drawn) [P-119] here?
Its value is 8.3%.

What about the EC50 of the same molecule?
Its EC50 is 25 nM.

Which results are given for C[C@@H]1CN(CC[C@H]2CC[C@H](NC(=O)c3cnc(-n4ncc5cc(C#N)cnc54)cc3NC3CC3)CC2)CCN1c1ccc(C2CCC(=O)NC2=O)cc1 (stereo partly drawn) [P-120]?
ALE THP1 HTRF YMIN: 7.2%; EC50: 15 nM

For C[C@H]1CN(CC[C@H]2CC[C@H](NC(=O)c3cnc(-n4ncc5cc(C#N)cnc54)cc3NC3CC3)CC2)CCN1c1ccc(C2CCC(=O)NC2=O)cc1 (stereo partly drawn) [P-121], which “ALE THP1 HTRF YMIN” value is on record?
The value was 11.0%.

And the EC50?
The EC50 was 13 nM.

What does the source list for N#Cc1cnc2c(cnn2-c2cc(NC3(C#N)CC3)c(C(=O)N[C@H]3CC[C@H](CCN4CCN(c5ccc(C6CCC(=O)NC6=O)cc5)CC4)CC3)cn2)c1 (stereo partly drawn) [P-122]?
ALE THP1 HTRF YMIN: 10.4%; EC50: 80 nM
